Earlier results as cited in PubChem BioAssay AID1259409 (Chemical Carcinogenesis Research Information System (CCRIS), 2018).

System: rodent chemically induced tumor inhibition, incidence and multiplicity
Assay: CCRIS tumor inhibitor studies

In the case of `CC(=O)[C@H]1C[C@@H]2C[C@H]1[C@@H](N=C=S)C2`, the “tumour outcome (control, treated, inhibition, significance)” value (Carcinogen: 7,12-DIMETHYLBENZ[A]ANTHRACENE, 57-97-6, Dose [Inhibitor]: 0, 100 UMOL/D IN 0.5 ML EMULPHOR EL-620 FOR 5 CONSECUTIVE DAYS BEGINNING AT 47 D OF AGE (STUDY DURATION: 155 D), Route [Inhibitor]: GAVAGE, Species: RAT, Strain/Sex: SPRAGUE-DAWLEY/FEMALE, Target Tissue: Type of Lesion: MAMMARY GLAND: TUMOR, Dose [Carcinogen]: 8 MG IN 1 ML SESAME OIL ONCE AT 50 D OF AGE, Promoter: NONE USED) is listed as 17/25 (68%), 9/19 (47%), 31%, not significant.

For `CCOC(=O)/C=C(C)/C=C/C=C(C)/C=C/c1c(C)cc(O)c(C)c1C`, the “tumour outcome (control, treated, inhibition, significance)” value (Carcinogen: 7,12-DIMETHYLBENZ[A]ANTHRACENE, 57-97-6, Dose [Inhibitor]: 140 NMOL IN 0.2 ML ACETONE 2/WK (D 1 AND D 4 OF EACH WK) 1 HR BEFORE EACH PROMOTER APPLICATION STARTING 14 D AFTER CARCI, Route [Inhibitor]: DERMAL, Species: MOUSE, Strain/Sex: CD-1/FEMALE, Target Tissue: Type of Lesion: SKIN: PAPILLOMA, Dose [Carcinogen]: 0.2 UMOL IN 0.2 ML ACETONE ONCE, Promoter: 12-O-TETRADECANOYLPHORBOL-13-ACETATE, 16561-29-8) is listed as 90%, 95%, -6%, not significant.

In the case of `CC1=C(/C=C/C(C)=C/C=C/C(C)=C\C(=O)NCCCCO)C(C)(C)CCC1`, the “tumour outcome (control, treated, inhibition, significance)” value (Carcinogen: N-BUTYL-N-(4-HYDROXYBUTYL)NITROSAMINE, 3817-11-6, Dose [Inhibitor]: 1.5 MMOL/KG DIET DAILY FOR 133 D STARTING ONE WK AFTER THE FINAL CARCINOGEN DOSE (STUDY DURATION: 190 D), Route [Inhibitor]: ORAL, Species: MOUSE, Strain/Sex: BDF/MALE, Target Tissue: Type of Lesion: URINARY BLADDER: TRANSITIONAL CELL CARCINOMA, Dose [Carcinogen]: 7.5 MG 1/WK FOR 8 WK, Promoter: NONE USED) is given as 21/100 (21%), 17/100 (17%), 20%, not significant and the “tumour outcome (control, treated, inhibition, significance)” value (Carcinogen: N-BUTYL-N-(4-HYDROXYBUTYL)NITROSAMINE, 3817-11-6, Dose [Inhibitor]: 1.5 MMOL/KG IN DIET FOR 133 D STARTING 1 WK AFTER LAST CARCINOGEN DOSE (STUDY DURATION: 190 D), Route [Inhibitor]: ORAL, Species: MOUSE, Strain/Sex: DBF1/MALE, Target Tissue: Type of Lesion: URINARY BLADDER: TRANSITIONAL CELL CARCINOMA, Dose [Carcinogen]: 7.5 MG 1/WK FOR 8 WK, Promoter: NONE USED) is given as 21/100 (21%), 17/100 (17%), 19%, not significant.

In the case of `O=C(O)[C@@H](O)[C@@H](O)[C@H](O)[C@@H](O)C(=O)O`, the “tumour outcome (control, treated, inhibition, significance)” value (Carcinogen: 7,12-DIMETHYLBENZ[A]ANTHRACENE, 57-97-6, Dose [Inhibitor]: 0, 2% IN DIET FOR THE DURATION OF STUDY BEGINNING 1 WK PRIOR TO CARCINOGEN DOSE (STUDY DURATION: 105 WK), Route [Inhibitor]: ORAL, Species: RAT, Strain/Sex: SPRAGUE-DAWLEY/FEMALE, Target Tissue: Type of Lesion: MAMMARY GLAND: TUMOR, Dose [Carcinogen]: 15 MG IN 1 ML SESAME OIL ONCE, Promoter: NONE USED) is given as 88%, 80%, 9%, not significant, the “tumour outcome (control, treated, inhibition, significance)” value (Carcinogen: 7,12-DIMETHYLBENZ[A]ANTHRACENE, 57-97-6, Dose [Inhibitor]: 0, 128 MMOL/KG OF DIET FOR 15.5 WK BEGINNING 10 D POST CARCINOGEN DOSE (STUDY DURATION: 17 WK), Route [Inhibitor]: ORAL, Species: RAT, Strain/Sex: SPRAGUE-DAWLEY/FEMALE, Target Tissue: Type of Lesion: MAMMARY GLAND: TUMOR, Dose [Carcinogen]: 15 MG IN 1 ML OF SESAME OIL ONCE AT 50 D OF AGE, Promoter: NONE USED) is given as 92%, 58%, 37%, not calculated and the “tumour outcome (control, treated, inhibition, significance)” value (Carcinogen: 7,12-DIMETHYLBENZ[A]ANTHRACENE, 57-97-6, Dose [Inhibitor]: 0, 128 MMOL/KG OF DIET FOR 18.5 WK BEGINNING 10 D PRIOR TO CARCINOGEN DOSE (STUDY DURATION: 18.5 WK), Route [Inhibitor]: ORAL, Species: RAT, Strain/Sex: SPRAGUE-DAWLEY/FEMALE, Target Tissue: Type of Lesion: MAMMARY GLAND: TUMOR, Dose [Carcinogen]: 15 MG IN 1 ML OF SESAME OIL ONCE AT 50 D OF AGE, Promoter: NONE USED) is given as 83%, 50%, 40%, not calculated. For the same molecule, the “tumour outcome (control, treated, inhibition, significance)” value (Carcinogen: 7,12-DIMETHYLBENZ[A]ANTHRACENE, 57-97-6, Dose [Inhibitor]: 0, 128 MMOL/KG OF DIET FOR 20 D BEGINNING 10 D PRIOR TO CARCINOGEN DOSE (STUDY DURATION: 18.5 WK), Route [Inhibitor]: ORAL, Species: RAT, Strain/Sex: SPRAGUE-DAWLEY/FEMALE, Target Tissue: Type of Lesion: MAMMARY GLAND: TUMOR, Dose [Carcinogen]: 15 MG IN 1 ML OF SESAME OIL ONCE AT 50 D OF AGE, Promoter: NONE USED) was 100%, 82%, 18%, not calculated, the “tumour outcome (control, treated, inhibition, significance)” value (Carcinogen: 7,12-DIMETHYLBENZ[A]ANTHRACENE, 57-97-6, Dose [Inhibitor]: 32 MMOL/KG OF CHOW DIET IN 25 ML OF THE VEHICLE (ETHANOL/TRICAPRYLIN 1:4 (VOL/VOL) PLUS 6% (WT/VOL) ALPHA-TOCOPHEROL) BE, Route [Inhibitor]: ORAL, Species: RAT, Strain/Sex: SPRAGUE-DAWLEY/FEMALE, Target Tissue: Type of Lesion: MAMMARY GLAND: TUMOR, Dose [Carcinogen]: 75 MG/KG BW IN 1.0 ML SESAME OIL ONCE, Promoter: NONE USED) was 70%, 55%, 21%, not significant and the “tumour outcome (control, treated, inhibition, significance)” value (Carcinogen: 7,12-DIMETHYLBENZ[A]ANTHRACENE, 57-97-6, Dose [Inhibitor]: 64 MMOL/KG OF CHOW DIET IN 25 ML OF THE VEHICLE (ETHANOL/TRICAPRYLIN 1:4 (VOL/VOL) PLUS 6% (WT/VOL) ALPHA-TOCOPHEROL) BE, Route [Inhibitor]: ORAL, Species: RAT, Strain/Sex: SPRAGUE-DAWLEY/FEMALE, Target Tissue: Type of Lesion: MAMMARY GLAND: TUMOR, Dose [Carcinogen]: 75 MG/KG BW IN 1.0 ML SESAME OIL ONCE, Promoter: NONE USED) was 70%, 55%, 21%, not significant. For the same molecule, the “tumour outcome (control, treated, inhibition, significance)” value (Carcinogen: 7,12-DIMETHYLBENZ[A]ANTHRACENE, 57-97-6, Dose [Inhibitor]: 128 MMOL/KG OF CHOW DIET IN 25 ML OF THE VEHICLE (ETHANOL/TRICAPRYLIN 1:4 (VOL/VOL) PLUS 6% (WT/VOL) ALPHA-TOCOPHEROL) B, Route [Inhibitor]: ORAL, Species: RAT, Strain/Sex: SPRAGUE-DAWLEY/FEMALE, Target Tissue: Type of Lesion: MAMMARY GLAND: TUMOR, Dose [Carcinogen]: 75 MG/KG BW IN 1.0 ML SESAME OIL ONCE, Promoter: NONE USED) was 70%, 35%, 50%, not significant and the “tumour outcome (control, treated, inhibition, significance)” value (Carcinogen: AZOXYMETHANE [25843-45-2], Dose [Inhibitor]: 3.5% IN DIET FOR 38 WK BEGINNING 1 WK POST LAST CARCINOGEN DOSE (STUDY DURATION: 40 WK), Route [Inhibitor]: ORAL, Species: RAT, Strain/Sex: F344/MALE, Target Tissue: Type of Lesion: COLON: TUMOR, Dose [Carcinogen]: 15 MG/KG BW 1X/WK FOR 2 WK (STUDY DURATION: 40 WK), Promoter: NONE) was 15/26 (57.7%), 6/24 (25.0%), 57%, p<0.05.

In the case of `O=C1CC(C(=O)O)C(C(=O)O)O1` (stereo unspecified), the “tumour outcome (control, treated, inhibition, significance)” value (Carcinogen: BENZO[A]PYRENE, 50-32-8, Dose [Inhibitor]: 0.034 MMOL/G IN DIET FOR 5 WK BEGINNING 1 WK PRIOR TO FIRST CARCINOGEN DOSE AND CONTINUING FOR 3 D POST LAST CARCINOGEN, Route [Inhibitor]: ORAL, Species: MOUSE, Strain/Sex: ICR/HA/FEMALE, Target Tissue: Type of Lesion: FORESTOMACH: TUMOR, Dose [Carcinogen]: 1 MG IN 0.2 ML CORN OIL 2/WK FOR 4 WK STARTING, Promoter: NONE USED) is listed as 100%, 100%, 0%, not significant.

For `NC(Cc1c[nH]c2ccccc12)C(=O)O` (stereo unspecified), the “tumour outcome (control, treated, inhibition, significance)” value (Carcinogen: N-BUTYL-N-(4-HYDROXYBUTYL)NITROSAMINE, 3817-11-6, Dose [Inhibitor]: 5% DIET DAILY FOR 34 WK STARTING AT COMPLETION OF CARCINOGEN TREATMENT (STUDY DURATION: 38 WK), Route [Inhibitor]: ORAL, Species: RAT, Strain/Sex: F344/MALE, Target Tissue: Type of Lesion: URINARY BLADDER: PAPILLOMA, Dose [Carcinogen]: 0.01% IN DRINKING WATER FOR 4 WK, Promoter: NONE USED) is given as 33%, 27%, 18%, not significant.

For `c1ccc2c(c1)-c1cccc3cccc-2c13`, the “tumour outcome (control, treated, inhibition, significance)” value (Carcinogen: BENZO[A]PYRENE, 50-32-8, Dose [Inhibitor]: 40 UG IN 0.1 ML ACETONE 3/WK ADMINISTERED SIMULTANEOUSLY WITH CARCINOGEN FOR DURATION OF STUDY (STUDY DURATION: 440 D), Route [Inhibitor]: DERMAL, Species: MOUSE, Strain/Sex: ICR/FEMALE, Target Tissue: Type of Lesion: SKIN: PAPILLOMA, Dose [Carcinogen]: 5 UG IN 0.1 ML ACETONE 3/WK FOR DURATION OF STUDY, Promoter: NONE USED) is listed as 16/50 (32%), 39/50 (78%), -144%, not calculated and the “tumour outcome (control, treated, inhibition, significance)” value (Carcinogen: BENZO[A]PYRENE, 50-32-8, Dose [Inhibitor]: 40 UG IN 0.1 ML ACETONE 3/WK ADMINISTERED SIMULTANEOUSLY WITH CARCINOGEN FOR DURATION OF STUDY (STUDY DURATION: 440 D), Route [Inhibitor]: DERMAL, Species: MOUSE, Strain/Sex: ICR/FEMALE, Target Tissue: Type of Lesion: SKIN: SQUAMOUS CARCINOMA, Dose [Carcinogen]: 5 UG IN 0.1 ML ACETONE 3/WK FOR DURATION OF STUDY, Promoter: NONE USED) is listed as 12/50 (24%), 37/50 (74%), -208%, not calculated.
